Test results reported in US7138361B2, “Herbicidal heterocycles” (E. I. du Pont de Nemours and Company, priority 2000, dated 2006).

Legend:
Type in all cases: in vivo
[1] = system: smallflower flatsedge (Cyperus difformis); assay: Test C flooded paddy test; conditions: for Flatsedge plant response rating: Flooded Paddy, scale 0 to 100, 0 no effect, 100 complete control; for Plant response rating, Flatsedge / Plant response rating (scale 0 to 100), Flatsedge: flooded paddy test; for Plant response rating, Flatsedge: scale 0 to 100 (0 no effect, 100 complete control)
How it was run: (§1)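 Greenhouse-maintained for 12 to 14 days after treatment, the paddy plants (2-leaf stage at application) were scored visually against controls. A score of 0 denotes no effect and a score of 100 denotes complete control.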

rice (Oryza saliva) = assay: Test C flooded paddy test; conditions: for Rice plant response rating: Flooded Paddy, scale 0 to 100, 0 no effect, 100 complete control; for Plant response rating, Rice / Plant response rating (scale 0 to 100), Rice: flooded paddy test; for Plant response rating, Rice: scale 0 to 100 (0 no effect, 100 complete control)
How it was run: as §1

[2] = system: johnsongrass (Sorghum halepense); assay: Test C postemergence
How it was run: (§2)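 Compounds in non-phytotoxic solvent with surfactant applied preemergence to planted seeds and postemergence to plants at 1- to 4-leaf stage (2–18 cm). Kept in greenhouse 12–14 days, then visually rated against controls on a 0 (no effect) to 100 (complete control) scale.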

[3] = system: goosegrass (Eleusine indica); assay: Test C postemergence
How it was run: as §2

[4] = system: woolly cupgrass (Eriochloa villosa); assay: Test C postemergence
How it was run: as §2

corn (Zea mays) = assay: Test C postemergence
How it was run: as §2

[5] = system: giant foxtail (Setaria faberii); assay: Test C postemergence
How it was run: as §2

soybean (Glycine max) = assay: Test C postemergence
How it was run: as §2

[6] = system: pigweed (Amaranthus retroflexus); assay: Test C postemergence
How it was run: as §2

kochia (Kochia scoparia) = assay: Test C postemergence
How it was run: as §2

[7] = system: lambsquarters (Chenopodium album); assay: Test C postemergence
How it was run: as §2

[8] = system: velvetleaf (Abutilon theophrasti); assay: Test C postemergence
How it was run: as §2

[9] = system: yellow nutsedge (Cyperus esculentus); assay: Test C postemergence
How it was run: as §2

[10] = system: morningglory (Ipomoea hederacea); assay: Test C postemergence
How it was run: as §2

[11] = system: cocklebur (Xanthium strumarium); assay: Test C postemergence
How it was run: as §2

[12] = system: Surinam grass (Brachiaria decumbens); assay: Test C postemergence
How it was run: as §2

[13] = system: crabgrass (Digitaria sanguinalis); assay: Test C postemergence
How it was run: as §2

[14] = system: bermudagrass (Cynodon dactylon); assay: Test C postemergence
How it was run: as §2

[15] = Rate 250 g/ha, scale 0 to 100 (0 no effect, 100 complete control)
[16] = Rate 500 g/ha, scale 0 to 100 (0 no effect, 100 complete control)
[17] = Rate 125 g/ha, scale 0 to 100, 0 no effect, 100 complete control
[18] = Rate 16 g/ha, visually evaluated after 12 to 14 days, 0 = no effect, 100 = complete control
[19] = Rate 62 g/ha, visually evaluated after 12 to 14 days, 0 = no effect, 100 = complete control
[20] = under head Rate 16 g/ha, (own rate not given), after 12 to 14 days

CCC(CC)c1ccn(C2CCN(c3ccc(Cl)c(OC)c3)C2=O)n1 (stereo not drawn) [Compound 118]
Flatsedge plant response rating ([1]; Rate 250 g/ha): 100
Flatsedge plant response rating ([1]; Rate 500 g/ha): 100
Plant response rating, Flatsedge ([1]; Rate 62 g/ha): 0
Plant response rating, Flatsedge ([1]; Rate 125 g/ha): 100
Rice plant response rating (rice (Oryza saliva); Rate 250 g/ha): 20
Rice plant response rating (rice (Oryza saliva); Rate 500 g/ha): 30
Plant response rating, Rice (rice (Oryza saliva); Rate 62 g/ha): 0
Plant response rating, Rice (rice (Oryza saliva); Rate 125 g/ha): 0

CCC(C)c1ccn(C2CCN(c3ccc(Cl)c(OC)c3)C2=O)n1 (stereo not drawn) [Compound 119]
Flatsedge plant response rating ([1]; Rate 250 g/ha): 100
Flatsedge plant response rating ([1]; Rate 500 g/ha): 100
Plant response rating, Flatsedge ([1]; Rate 62 g/ha): 0
Plant response rating, Flatsedge ([1]; Rate 125 g/ha): 100
Rice plant response rating (rice (Oryza saliva); Rate 250 g/ha): 50
Rice plant response rating (rice (Oryza saliva); Rate 500 g/ha): 50
Plant response rating, Rice (rice (Oryza saliva); Rate 62 g/ha): 20
Plant response rating, Rice (rice (Oryza saliva); Rate 125 g/ha): 40
Plant response rating, Johnsongrass ([2]; Rate 62 g/ha, scale 0 to 100): 0
Plant response rating, Johnsongrass [2, 15]: 0
Plant response rating, Johnsongrass [2, 16]: 0
Plant response rating, Johnsongrass ([2]; rate not given, scale 0 to 100): 0
Plant response rating, Goosegrass ([3]; Rate 62 g/ha, scale 0 to 100): 0
Plant response rating, Goosegrass [3, 15]: 0
Plant response rating, Goosegrass [3, 16]: 30
Plant response rating, Cupgrass, Woolly ([4]; Rate 62 g/ha, scale 0 to 100): 0
Plant response rating, Cupgrass, Woolly [4, 15]: 0
Plant response rating, Cupgrass, Woolly [4, 16]: 20
Plant response rating, Corn (corn (Zea mays); Rate 62 g/ha, scale 0 to 100): 20
Plant response rating, Corn (corn (Zea mays); [15]): 20
Plant response rating, Corn (corn (Zea mays); [16]): 50
Plant response rating, Corn (corn (Zea mays); scale 0 to 100): 20
Plant response rating, Foxtail, Giant ([5]; Rate 62 g/ha, scale 0 to 100): 0
Plant response rating, Foxtail, Giant [5, 15]: 0
Plant response rating, Foxtail, Giant [5, 16]: 80
Plant response rating, Soybean (soybean (Glycine max); Rate 62 g/ha, scale 0 to 100): 40
Plant response rating, Soybean (soybean (Glycine max); [15]): 80
Plant response rating, Soybean (soybean (Glycine max); [16]): 90
Plant response rating, Pigweed ([6]; Rate 62 g/ha, scale 0 to 100): 40
Plant response rating, Pigweed [6, 15]: 90
Plant response rating, Kochia (kochia (Kochia scoparia); Rate 62 g/ha, scale 0 to 100): 60
Plant response rating, Kochia (kochia (Kochia scoparia); [15]): 90
Plant response rating, Kochia (kochia (Kochia scoparia); [16]): 90
Plant response rating, Lambsquarters ([7]; Rate 62 g/ha, scale 0 to 100): 90
Plant response rating, Lambsquarters [7, 15]: 90
Plant response rating, Lambsquarters [7, 16]: 100
Plant response rating, Velvetleaf ([8]; Rate 62 g/ha, scale 0 to 100): 0
Plant response rating, Velvetleaf [8, 15]: 10
Plant response rating, Velvetleaf [8, 16]: 20
Plant response rating, Velvetleaf ([8]; scale 0 to 100): 0
Plant response rating, Nutsedge ([9]; Rate 62 g/ha, scale 0 to 100): 0
Plant response rating, Nutsedge [9, 15]: 0
Plant response rating, Nutsedge [9, 16]: 0
Plant response rating, Morningglory ([10]; Rate 62 g/ha, scale 0 to 100): 80
Plant response rating, Morningglory [10, 15]: 100
Plant response rating, Cocklebur ([11]; Rate 62 g/ha, scale 0 to 100): 50
Plant response rating, Cocklebur [11, 15]: 70
Plant response rating, Surinam grass ([12]; Rate 62 g/ha, scale 0 to 100): 0
Plant response rating, Surinam grass [12, 17]: 0
Plant response rating, Surinam grass [12, 15]: 0
Plant response rating, Surinam grass [12, 16]: 20
Plant response rating, Crabgrass ([13]; Rate 62 g/ha, scale 0 to 100): 30
Plant response rating, Crabgrass [13, 15]: 30
Plant response rating, Crabgrass [13, 16]: 60
Plant response rating, Bermudagrass ([14]; Rate 62 g/ha, scale 0 to 100): 0
Plant response rating, Bermudagrass [14, 17]: 0
Plant response rating, Bermudagrass [14, 15]: 0
Plant response rating, Bermudagrass [14, 16]: 0

CCOc1cccc(N2CCC(n3ccc(C(C)(C)C)n3)C2=O)c1 (stereo not drawn) [Compound 130]
Flatsedge plant response rating ([1]; Rate 250 g/ha): 90
Flatsedge plant response rating ([1]; Rate 500 g/ha): 90
Plant response rating, Flatsedge ([1]; Rate 125 g/ha): 100
Plant response rating (scale 0 to 100), Flatsedge [1, 18]: 100
Plant response rating (scale 0 to 100), Flatsedge [1, 19]: 90
Plant response rating (scale 0 to 100), Flatsedge [1, 20]: 90
Rice plant response rating (rice (Oryza saliva); Rate 250 g/ha): 80
Plant response rating, Rice (rice (Oryza saliva); Rate 125 g/ha): 20
Plant response rating (scale 0 to 100), Rice (rice (Oryza saliva); [18]): 0
Plant response rating (scale 0 to 100), Rice (rice (Oryza saliva); [19]): 50
Plant response rating (scale 0 to 100), Rice (rice (Oryza saliva); [20]): 0

CCCC(C)c1ccn(C2OCN(c3cccc(OC(F)F)c3)C2=O)n1 (stereo not drawn) [Compound 132]
Flatsedge plant response rating ([1]; Rate 500 g/ha): 90
Plant response rating, Flatsedge ([1]; Rate 125 g/ha): 90
Plant response rating, Flatsedge ([1]; Rate 250 g/ha): 90
Plant response rating (scale 0 to 100), Flatsedge [1, 19]: 90
Rice plant response rating (rice (Oryza saliva); Rate 500 g/ha): 90
Plant response rating, Rice (rice (Oryza saliva); Rate 125 g/ha): 20
Plant response rating, Rice (rice (Oryza saliva); Rate 250 g/ha): 20
Plant response rating (scale 0 to 100), Rice (rice (Oryza saliva); [19]): 0

CC(C)(C)c1ccn(C2OCN(c3cccc(OC(F)F)c3)C2=O)n1 (stereo not drawn) [Compound 133]
Flatsedge plant response rating ([1]; Rate 500 g/ha): 100
Plant response rating, Flatsedge ([1]; Rate 125 g/ha): 100
Plant response rating, Flatsedge ([1]; Rate 250 g/ha): 100
Plant response rating (scale 0 to 100), Flatsedge [1, 19]: 100
Rice plant response rating (rice (Oryza saliva); Rate 500 g/ha): 90
Plant response rating, Rice (rice (Oryza saliva); Rate 125 g/ha): 70
Plant response rating, Rice (rice (Oryza saliva); Rate 250 g/ha): 90
Plant response rating (scale 0 to 100), Rice (rice (Oryza saliva); [19]): 60

CCC(C)c1ccn(C2OCN(c3cccc(OC(F)F)c3)C2=O)n1 (stereo not drawn) [Compound 134]
Flatsedge plant response rating ([1]; Rate 500 g/ha): 100
Plant response rating, Flatsedge ([1]; Rate 125 g/ha): 100
Plant response rating, Flatsedge ([1]; Rate 250 g/ha): 100
Plant response rating (scale 0 to 100), Flatsedge [1, 19]: 90
Rice plant response rating (rice (Oryza saliva); Rate 500 g/ha): 90
Plant response rating, Rice (rice (Oryza saliva); Rate 125 g/ha): 60
Plant response rating, Rice (rice (Oryza saliva); Rate 250 g/ha): 90
Plant response rating (scale 0 to 100), Rice (rice (Oryza saliva); [19]): 0

CCC(CC)c1ccn(C2CCN(c3ccc(F)c(C(F)(F)F)c3)C2=O)n1 (stereo not drawn) [Compound 144]
Flatsedge plant response rating ([1]; Rate 500 g/ha): 95
Plant response rating, Flatsedge ([1]; Rate 125 g/ha): 85
Plant response rating, Flatsedge ([1]; Rate 250 g/ha): 95
Plant response rating (scale 0 to 100), Flatsedge [1, 19]: 85
Rice plant response rating (rice (Oryza saliva); Rate 500 g/ha): 75
Plant response rating, Rice (rice (Oryza saliva); Rate 125 g/ha): 20
Plant response rating, Rice (rice (Oryza saliva); Rate 250 g/ha): 45
Plant response rating (scale 0 to 100), Rice (rice (Oryza saliva); [19]): 20

CCC(C)c1ccn(C2CCN(c3ccc(F)c(C(F)(F)F)c3)C2=O)n1 (stereo not drawn) [Compound 145]
Flatsedge plant response rating ([1]; Rate 500 g/ha): 95
Plant response rating, Flatsedge ([1]; Rate 125 g/ha): 80
Plant response rating, Flatsedge ([1]; Rate 250 g/ha): 95
Plant response rating (scale 0 to 100), Flatsedge [1, 19]: 40
Rice plant response rating (rice (Oryza saliva); Rate 500 g/ha): 60
Plant response rating, Rice (rice (Oryza saliva); Rate 125 g/ha): 0
Plant response rating, Rice (rice (Oryza saliva); Rate 250 g/ha): 20
Plant response rating (scale 0 to 100), Rice (rice (Oryza saliva); [19]): 0
